# Structures can show the parent of a compound that is named as a salt.
# Key:
# [1] = test system: wachen, spontan hypertensiven Ratten; assay: Blood pressure and heart rate in conscious spontaneously hypertensive rats; details: in vivo
# Excerpt: (§1) Die Messungen von Blutdruck und Herzfrequenz wurden an der spontan hypertensiven Ratte und am narkotisierten, normotensiven Hund durchgeführt (siehe Tabelle 1 und 2).
# [2] = test system: narkotisierten, normtensiven Hunden; assay: Blood pressure and heart rate in anaesthetised normotensive dogs; type: in vivo, Beagle-Hunde; details: anaesthetised normotensive dog, at a dose giving a similar fall in blood pressure; text summary of Tabelle 2
# Excerpt: as §1
smiles,measurement,setting,value
Cc1cc2c(s1)CCC(CN[C@@H]1CC[C@@H](Oc3ccccc3)[C@@H]1O)C2=O (relative stereo) [MDL 19744 A],Herzfrequenz (result in words),[1],ausgeprägten Herzfrequenzsteigerung
same,Herzfrequenz (result in words),[2],ausgeprägten Herzfrequenzsteigerung
"O=C1c2cc(CO)sc2CCC1CN[C@@H]1CC[C@@H](Oc2ccccc2)[C@@H]1O (relative stereo) [Beispiel 1, 5-[N-((Z)-2-Hydroxy-(E)-3-phenoxy-cyclopentyl)-aminomethyl]-4,5,6,7-tetrahydro-2-hydroxymethyl-benzothiophen-4-on, Hydrochlorid]",Herzfrequenz (result in words),[1],Herzfrequenzerniedrigung
same,Herzfrequenz (result in words),[2],praktisch keine Herzfrequenzänderung

# Reference: patent EP0372667A1, “2-Hydroxymethyl thiophene derivatives, process for their preparation and their use as medicaments” (SCHERING AKTIENGESELLSCHAFT, priority 1988, dated 1990)
